Data published in patent US7198949B2, “Compositions and methods for altering the biodistribution of biological agents” (Board of Regents of the University of Nebraska, priority 1996, dated 2007).
Marks after values point to notes of the source that are not given here.

How the values were obtained:
[1] = target: T1, albumin of PESDA microbubbles (Homo sapiens, UniProt P02768); assay: Partitioning of 35S-labeled PS-ODN between PESDA microbubble top layer and lower layer, liquid scintillation counting; type: binding; settings: for BOTTOM / TOP: N 6; for TOP: top layer containing microbubbles
T1 construct: commercially available albumin (human), U.S.P. solution (generally supplied as 5% or 25% by weight sterile aqueous solutions); purchased
Experimental: Radiolabeled oligonucleotides were synthesized as hydrogen phosphonate material by Glen Research (Bethesda, Md.) The uniformly ^35S-labeled PS-ODN with sequences 5′-TATGCTGTGCCGGGGTCTTCGGGC 3′ (24-mer complementary to c-myb) (SEQ ID NO:2) and 5′ TTAGGG 3′ (SEQ ID NO:3) were incubated in a final volume of 0.5 ml with the perfluorocarbon-exposed sonicated dextrose albumin microbubble solution for 30 minutes at 37° C. The solutions were allowed to stand so that the bubbles could rise to the top and 100 microliters were removed from the clear solution at the bottom and 100 microliters were removed from the top containing the microbubbles.
Five percent human serum albumin and five percent dextrose were obtained from a commercial source. Three parts of 5% dexticse and one part 5% human serum albumin (total 16 milliliters) were drawn into a 35-milliliter Monojet syringe. Each dextrose albumin sample was hand agitated with 8±2 milliliters of either a fluorocarbon gas (decafluorobutane; molecular weight 238 grams/mole) or 8±2 milliliters of room air, and the sample was then exposed to electromechanical sonication at 20 kilohertz for 80±5 seconds. The mean size of four consecutive samples of the perfluorocarbon-exposed sonicated dextrose albumin (PESDA) microbubbles produced in this manner, as measured with hemocytometry was 4.6±0.4 microns, and mean concentration, as measured by a Coulter counter was 1.4×10^9 bubbles/milliliter. The solution of microbubbles was then washed in a 1000 times volume excess of 5% dextrose to remove albumin which was not associated with the microbubbles. The microbubbles were allowed four hours to rise. The lower solution was then removed leaving the washed foam. The washed foam was then mixed with 0.9% sodium chloride.
Radioactivity in solutions were determined by liquid scintillation counting in a liquid scintillation counter (model LSC7500; Beckman Instruments GmbH, Munich, Germany). The sample volume was 100 μl to which 5 ml of Hydrocount biodegradable scintillation cocktail was added and mixed. Samples were counted immediately after each experiment and then again 24 hours later in order to reduce the influence of chemiluminescence and of quenching.

human serum albumin = human serum albumin (Homo sapiens, UniProt P02768); settings: cited from earlier work
albumin = albumin (Homo sapiens, UniProt P02768); settings: drugs which bind to albumin at site 1; cited from earlier work
cytochrome P450 IIB1 = assay: Hexobarbital sleep time and biodistribution in rats given antisense oligos to cytochrome P450 IIB1 with or without PESDA microbubbles; type: in vivo, rat; settings: PB alone × 2 days, 100 mg/kg HB i.p., control rats about 23 minutes
Experimental: The oligonucleotides were conjugated to perfluoropropane exposed sonicated dextrose albumin microbubbles (PESDA) as earlier described and delivered to rats intravenously.
Male Sprague-Dawley rats (Sasco, Omaha), were used and weighed between 210 to 290 grams for all studies. […] The animals were exposed to 12 hour light/dark cycle and allowed access to Purina rat chow and tap water ad libitum.
Rats in groups with PB were injected intraperitoneally with phenobarbital (Mallinckrodt, St. Louis) at 80 ml/kg/day×2 days. The PB injections were given simultaneously with the ODN-microbubble injections. Phosphorothioate ODN injections were 1 ml/kg/day×2 days. Sleep times were measured 48 hours after the first injection. The rats were injected intraperitoneally with 100 ml/kg hexobarbital (Sigma, St. Louis), paired fresh daily. The volume of this injection is 1 ml/kg body weight.
Each rat was injected with 100 mg/kg of hexobarbital intraperitoneally. The animals were placed on their backs to insure that they were still under sedation from the hexobarbital. Sleep time is defined as the time they are placed on their backs to the time when they roll over. The sleep times listed are the mean of each animal in the group±standard deviation.
As described earlier, 100 mg/kg HB was injected i.p. to each animal at the end of 2 days of treatment with PB and/or the ODNs.

[2] = bubbles in the presence of free albumin
[3] = bubbles in the presence of free albumin, lower clear layer
[4] = washed bubbles (no free albumin)
[5] = washed bubbles (no free albumin), lower layer

Chain of albumin (P02768 25-609): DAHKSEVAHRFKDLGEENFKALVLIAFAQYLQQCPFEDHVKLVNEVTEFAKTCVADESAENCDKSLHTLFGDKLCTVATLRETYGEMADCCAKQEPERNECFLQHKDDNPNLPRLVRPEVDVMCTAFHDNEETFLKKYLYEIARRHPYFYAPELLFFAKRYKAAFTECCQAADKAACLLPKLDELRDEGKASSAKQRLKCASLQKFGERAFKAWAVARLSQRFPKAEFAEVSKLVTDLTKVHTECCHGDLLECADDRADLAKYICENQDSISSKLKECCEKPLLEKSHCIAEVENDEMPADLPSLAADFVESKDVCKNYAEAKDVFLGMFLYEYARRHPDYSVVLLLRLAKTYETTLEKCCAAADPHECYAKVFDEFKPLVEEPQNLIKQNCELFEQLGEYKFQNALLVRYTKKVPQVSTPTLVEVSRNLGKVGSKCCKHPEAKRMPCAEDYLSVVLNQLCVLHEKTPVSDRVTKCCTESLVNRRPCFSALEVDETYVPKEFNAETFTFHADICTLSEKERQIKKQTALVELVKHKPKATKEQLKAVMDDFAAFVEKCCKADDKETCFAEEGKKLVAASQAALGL
T1 sequence (P02768 25-609): as above
Chain of human serum albumin (P02768 25-609): as above

5′ TTAGGG 3′
RATIO T/B [1, 2]: 1.35 | BOTTOM [1, 3]: 92.3 ± 6.4 cpm/μl | TOP [1, 2]: 125 ± 6.4 cpm/μl | RATIO T/B [1, 4]: 1.67 | BOTTOM [1, 5]: 126 ± 8.7 cpm/μl | TOP [1, 4]: 210 ± 10.8 cpm/μl

5′-TATGCTGTGCCGGGGTCTTCGGGC 3′ (antisense TATGCTGTGCCGGGGTCTTCGGGC; phosphorothioate backbone, 35S label, further chemistry not given here) [c-myb, uniformly 35S-labeled PS-ODN, 24-mer complementary to c-myb]
RATIO T/B [1, 2]: 1.35 | BOTTOM [1, 3]: 77.3 ± 1.2 cpm/μl | TOP [1, 2]: 94.1 ± 17.6 cpm/μl | RATIO T/B [1, 4]: 2.16 | BOTTOM [1, 5]: 92.7 ± 15.7 cpm/μl | TOP [1, 4]: 200.3 ± 37.4 cpm/μl

5′d(AACGTTGAGGGGCAT)-3′ [15 mer PS-ODN]
binding to human serum albumin in solution (dissociation constant range) (human serum albumin): 3.7−4.8×10−5

CO/N=C(\C(=O)N[C@@H]1C(=O)N2C(C(=O)O)=C(CSc3nc(=O)c(=O)[nH]n3C)CS[C@H]12)c1csc(N)n1 [Ceftriaxone]
% Albumin Binding (albumin): 90–95* %

NS(=O)(=O)c1cc(C(=O)O)c(NCc2ccco2)cc1Cl [Furosemide]
% Albumin Binding (albumin): 98.8%

Clc1ccc(COC(Cn2ccnc2)c2ccc(Cl)cc2Cl)c(Cl)c1 (stereo not drawn) [Miconazole]
% Albumin Binding (albumin): 90.7–93.1* %

CCC1(c2ccccc2)C(=O)NC(=O)NC1=O [PB, phenobarbital]
sleep time (cytochrome P450 IIB1): about 11.4±4.5 minutes

O=C1NC(=O)C(c2ccccc2)(c2ccccc2)N1 [Phenytoin]
% Albumin Binding (albumin): 89.0%

CN1C(C(=O)Nc2ccccn2)=C(O)c2ccccc2S1(=O)=O [Piroxicam]
% Albumin Binding (albumin): 99.3%

Cc1noc(NS(=O)(=O)c2ccc(N)cc2)c1C [Sulfisoxazole]
% Albumin Binding (albumin): 91.4%

CCCC(CCC)C(=O)O [Valproic Acid]
% Albumin Binding (albumin): 93.0%
